Measurements published in patent publication US6500838B2, “Treatment of stereotypic, self-injurious and compulsive behaviors in man and animals using antagonists of NMDA receptors” (The Trustees of Tufts College, priority 1998, dated 2002).

Key:
BALB/c male mice = assay: Mouse model for pruritus: scratching after compound 48/80; format: in vivo
Description: The animals used were BALB/c male mice, weighing 27-33 g. One mouse was used per compound tested, except for two control mice receiving saline; two different mice were tested with (+) methadone, each with a different dose. Compound 48/80 (Kuraishi, Y. et al., European Journal of Pharmacology 275:229-233, 1995), 0.5 mg/ml in saline, was injected subcutaneously in a volume of 0.1 ml, between the shoulder blades of the mouse. Test compounds, dissolved in saline, were injected intraperitoneally in a volume of 0.1 ml per 10 g, either 10 minutes before or 30 minutes after injection of compound 48/80. The cumulative number of scratches with a hind leg were recorded at 10 minute intervals for 60 minutes following the injection of compound 48/80. See Tables 2 and 3, as well as FIGS. 4, 5A and 5B, showing the effectiveness of the compounds tested: naltrexone, dextromethorphan, (+) methadone, haloperidol, and (+) naloxone.

crib-biting horses = assay: Rate of crib-biting in horses after drug treatment; format: in vivo, horse
Description: Horses were admitted to the Large Animal Hospital of Tufts University School of Veterinary Medicine or were tested in their home barn. Cribbing straps and food were removed prior to testing. Control rates of crib-biting were observed and recorded for 5 minute intervals for one hour or more after an intravenous injection of 0.15 M saline. Test drugs were administered orally (by gavage) or by injection into the jugular vein. Solutions were made up with physiological saline and sterilized by filtration through a 0.2 micron filter (Millipore).
For the experimental data shown in FIG. 1, after establishment of a stable control rate of approximately 10 crib-bites per minute, 50 mg of D-methadone-HCl in 25 ml saline was injected i.v. In FIG. 1, the cumulative number of crib-bites was plotted against time as was the rate per 5 minute interval (Shuster, L. and N. H. Dodman, pp. 185-202, In Psychopharmacology of Animal Behavior Disorders, (N. H. Dodman and L. Shuster, eds.), Blackwell Scientific, Malden, Mass., 1998). […] The control rate then resumed during the next 80 minutes of observation. Horses were observed continuously during scoring for side effects that might be attributed to the treatment. These included changes in posture, disposition and motor activity. See also Table 1.

stall-walking horse = assay: Stall-walking (turning) in a horse, circuits around the stall; format: in vivo; details: horse Full Circle (turning), 1.0 mg/kg, iv.
Description: Dextromethorphan-HBr, 1.0 mg/kg i.v., was injected after 60 minutes of control observations, to test its effect on a stall-walking horse. When measuring “stall walking” locomotor activity, each circuit around the stall was scored as one rotation. Cumulative rotations per 5 minute interval were plotted against time to establish the rate of circling. The results of the experiment are plotted in FIG. 2. See also Table 1.

[1] = 20 mg/kg i.p. 30 minutes after 48/80, time 10 minutes (before dosing)
[2] = 20 mg/kg i.p. 30 minutes after 48/80, time 20 minutes (before dosing)
[3] = 20 mg/kg i.p. 30 minutes after 48/80, time 30 minutes
[4] = 20 mg/kg i.p. 30 minutes after 48/80, time 40 minutes
[5] = 20 mg/kg i.p. 30 minutes after 48/80, time 50 minutes
[6] = 20 mg/kg i.p. 30 minutes after 48/80, time 60 minutes
[7] = horse CB, 0.2 mg/kg, iv., before treatment 8.2
[8] = 10 mg/kg i.p. 10 minutes before 48/80, 10 minutes after 48/80
[9] = 10 mg/kg i.p. 10 minutes before 48/80, 20 minutes after 48/80
[10] = 10 mg/kg i.p. 10 minutes before 48/80, 30 minutes after 48/80
[11] = 10 mg/kg i.p. 10 minutes before 48/80, 40 minutes after 48/80
[12] = 10 mg/kg i.p. 10 minutes before 48/80, 50 minutes after 48/80
[13] = 10 mg/kg i.p. 10 minutes before 48/80, 60 minutes after 48/80
[14] = horse CB, 0.2 mg/kg, iv., before treatment 8.8

## C=CCN1CC[C@]23c4c5ccc(O)c4O[C@H]2C(=O)CC[C@]3(O)[C@H]1C5 [(+) naloxone]
BALB/c male mice; [1]
  Cumulative Scratches: 4
BALB/c male mice; [2]
  Cumulative Scratches: 48
BALB/c male mice; [3]
  Cumulative Scratches: 105
BALB/c male mice; [4]
  Cumulative Scratches: 112
BALB/c male mice; [5]
  Cumulative Scratches: 146
BALB/c male mice; [6]
  Cumulative Scratches: 175
crib-biting horses; horse CB, 0.12 mg/kg, iv.
  Duration of Effect: 60 min
  lag before effect: (30 min lag)
crib-biting horses; horse CB, 0.12 mg/kg, iv., before treatment 10
  Crib-biting Frequency number per minute After treatment: 6.6 number per minute
crib-biting horses; horse CB, 0.18 mg/kg, i.v.
  Duration of Effect: 60 min
  lag before effect: (no lag)
crib-biting horses; horse CB, 0.18 mg/kg, i.v., before treatment 9.2
  Crib-biting Frequency number per minute After treatment: 0.8 number per minute

## CNC1(c2ccccc2Cl)CCCCC1=O (stereo not drawn) [ketamine]
crib-biting horses; [7]
  Crib-biting Frequency number per minute After treatment: 1.3 number per minute
  Duration of Effect: 50 min
  lag before effect: (no lag)

## O=C(CCCN1CCC(O)(c2ccc(Cl)cc2)CC1)c1ccc(F)cc1 [Haloperidol]
BALB/c male mice; 2.0 mg/kg i.p. 30 minutes after 48/80, time 10 minutes (before dosing)
  Cumulative Scratches: 2
BALB/c male mice; 2.0 mg/kg i.p. 30 minutes after 48/80, time 20 minutes (before dosing)
  Cumulative Scratches: 87
BALB/c male mice; 2.0 mg/kg i.p. 30 minutes after 48/80, time 30 minutes
  Cumulative Scratches: 108
BALB/c male mice; 2.0 mg/kg i.p. 30 minutes after 48/80, time 40 minutes
  Cumulative Scratches: 137
BALB/c male mice; 2.0 mg/kg i.p. 30 minutes after 48/80, time 50 minutes
  Cumulative Scratches: 137
BALB/c male mice; 2.0 mg/kg i.p. 30 minutes after 48/80, time 60 minutes
  Cumulative Scratches: 142

## COc1ccc2c(c1)[C@]13CCCC[C@@H]1[C@H](C2)N(C)CC3 [Dextromethorphan]
stall-walking horse
  Duration of Effect: 45 min
  lag before effect: (no lag)
stall-walking horse; before treatment 3.5 turns per min.
  turns per min. After treatment: .3 turns turns per min.
BALB/c male mice; [8]
  Cumulative Scratches: 1
BALB/c male mice; [9]
  Cumulative Scratches: 57
BALB/c male mice; [10]
  Cumulative Scratches: 105
BALB/c male mice; [11]
  Cumulative Scratches: 157
BALB/c male mice; [12]
  Cumulative Scratches: 182
BALB/c male mice; [13]
  Cumulative Scratches: 192
BALB/c male mice; [1]
  Cumulative Scratches: 47
BALB/c male mice; [2]
  Cumulative Scratches: 125
BALB/c male mice; [3]
  Cumulative Scratches: 158
BALB/c male mice; [4]
  Cumulative Scratches: 171
BALB/c male mice; [5]
  Cumulative Scratches: 178
BALB/c male mice; [6]
  Cumulative Scratches: 185
crib-biting horses; horse CB, 1.0 mg/kg, i.v.
  Duration of Effect: 35 min
  lag before effect: (no lag)
crib-biting horses; horse CB, 1.0 mg/kg, i.v., before treatment 7.6
  Crib-biting Frequency number per minute After treatment: 0.3 number per minute
crib-biting horses; horse CB, 1.0 mg/kg, p.o.
  Duration of Effect: 90 min
  lag before effect: (35 min lag)
crib-biting horses; horse CB, 1.0 mg/kg, p.o., before treatment 8
  Crib-biting Frequency number per minute After treatment: 1.7 number per minute
crib-biting horses; horse Frito, 3.2 mg/kg p.o.
  Duration of Effect: 100 min
  lag before effect: (30 min lag)
crib-biting horses; horse Frito, 3.2 mg/kg p.o., before treatment 3.5
  Crib-biting Frequency number per minute After treatment: 1.8 number per minute

## CCC(=O)C(C[C@H](C)N(C)C)(c1ccccc1)c1ccccc1 [(+) Methadone]
BALB/c male mice; 5 mg/kg i.p. 30 minutes after 48/80, time 10 minutes (before dosing)
  Cumulative Scratches: 0
BALB/c male mice; 5 mg/kg i.p. 30 minutes after 48/80, time 20 minutes (before dosing)
  Cumulative Scratches: 56
BALB/c male mice; 5 mg/kg i.p. 30 minutes after 48/80, time 30 minutes
  Cumulative Scratches: 114
BALB/c male mice; 5 mg/kg i.p. 30 minutes after 48/80, time 40 minutes
  Cumulative Scratches: 145
BALB/c male mice; 5 mg/kg i.p. 30 minutes after 48/80, time 50 minutes
  Cumulative Scratches: 210
BALB/c male mice; 5 mg/kg i.p. 30 minutes after 48/80, time 60 minutes
  Cumulative Scratches: 267
BALB/c male mice; [8]
  Cumulative Scratches: 0
BALB/c male mice; [9]
  Cumulative Scratches: 0
BALB/c male mice; [10]
  Cumulative Scratches: 0
BALB/c male mice; [11]
  Cumulative Scratches: 0
BALB/c male mice; [12]
  Cumulative Scratches: 0
BALB/c male mice; [13]
  Cumulative Scratches: 0
BALB/c male mice; 10 mg/kg i.p. 30 minutes after 48/80, time 10 minutes (before dosing)
  Cumulative Scratches: 6
BALB/c male mice; 10 mg/kg i.p. 30 minutes after 48/80, time 20 minutes (before dosing)
  Cumulative Scratches: 38
BALB/c male mice; 10 mg/kg i.p. 30 minutes after 48/80, time 30 minutes
  Cumulative Scratches: 106
BALB/c male mice; 10 mg/kg i.p. 30 minutes after 48/80, time 40 minutes
  Cumulative Scratches: 107
BALB/c male mice; 10 mg/kg i.p. 30 minutes after 48/80, time 50 minutes
  Cumulative Scratches: 107
BALB/c male mice; 10 mg/kg i.p. 30 minutes after 48/80, time 60 minutes
  Cumulative Scratches: 107
crib-biting horses; 50 mg in 25 ml saline i.v., control rate approximately 10 crib-bites per minute, resumed during the next 80 minutes
  rate of crib-bites per 5 minute interval: decreased between the second and the fifth 5-minute interval following injection
crib-biting horses; [14]
  Crib-biting Frequency number per minute After treatment: 2.6 number per minute
  Duration of Effect: 20 min
  lag before effect: (10 min lag)
crib-biting horses; horse CB, .01 mg/kg, iv.
  Duration of Effect: 10 min
crib-biting horses; horse CB, .01 mg/kg, iv., before treatment 8.2
  Crib-biting Frequency number per minute After treatment: 5.5 number per minute

## (−) naloxone
crib-biting horses; horse CB, .04 mg/kg, i.v.
  Duration of Effect: 65 min
  lag before effect: (10 min lag)
crib-biting horses; horse CB, .04 mg/kg, i.v., before treatment 12
  Crib-biting Frequency number per minute After treatment: 0.1 number per minute

## O=C1CC[C@@]2(O)[C@H]3Cc4ccc(O)c5c4[C@@]2(CCN3CC2CC2)[C@H]1O5 [Naltrexone]
BALB/c male mice; [8]
  Cumulative Scratches: 0
BALB/c male mice; [9]
  Cumulative Scratches: 0
BALB/c male mice; [10]
  Cumulative Scratches: 0
BALB/c male mice; [11]
  Cumulative Scratches: 1
BALB/c male mice; [12]
  Cumulative Scratches: 61
BALB/c male mice; [13]
  Cumulative Scratches: 73
